From patent publication US10087188B2, “Benzamide imidazopyrazine Btk inhibitors” (MERCK SHARP & DOHME CORP., priority 2014, dated 2018)
Read-outs that look alike come from different tables or passages of the source.

How the values were obtained:
[1] = biological target: BTK enzyme (recombinant full-length BTK, hBTK) (Homo sapiens (Human), UniProt Q06187); test: Btk enzyme activity assay, LANCE TR-FRET; assay type: biochemical; conditions: 50 pM hBTK, 2 μM biotin-A5-peptide, 25 μM ATP; 60 minute compound & enzyme incubation; read-out: BTK binding IC50
Sequence of BTK enzyme (recombinant full-length BTK, hBTK) (Q06187 whole entry): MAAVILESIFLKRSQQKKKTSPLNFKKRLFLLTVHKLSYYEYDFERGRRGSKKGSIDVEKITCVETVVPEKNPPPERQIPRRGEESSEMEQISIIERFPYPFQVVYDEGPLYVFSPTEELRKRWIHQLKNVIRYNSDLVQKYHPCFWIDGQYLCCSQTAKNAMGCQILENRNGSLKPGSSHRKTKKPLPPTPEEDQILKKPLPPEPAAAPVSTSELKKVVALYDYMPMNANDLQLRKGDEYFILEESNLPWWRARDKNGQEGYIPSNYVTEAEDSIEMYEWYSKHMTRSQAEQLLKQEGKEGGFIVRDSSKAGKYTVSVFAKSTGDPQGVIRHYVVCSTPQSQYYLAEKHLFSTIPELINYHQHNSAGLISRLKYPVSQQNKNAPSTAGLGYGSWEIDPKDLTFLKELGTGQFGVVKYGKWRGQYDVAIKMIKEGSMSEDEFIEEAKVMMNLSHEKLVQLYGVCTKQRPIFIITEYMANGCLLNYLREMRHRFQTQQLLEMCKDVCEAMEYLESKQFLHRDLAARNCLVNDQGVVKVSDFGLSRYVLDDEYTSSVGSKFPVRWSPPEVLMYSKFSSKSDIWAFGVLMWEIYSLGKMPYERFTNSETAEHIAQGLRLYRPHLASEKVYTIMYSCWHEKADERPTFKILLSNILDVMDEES
Procedure: Btk Enzyme Activity Assay Methods
BTK enzymatic activity was determined with the LANCE (Lanthanide Chelate Excite) TR-FRET (Time-resolved fluorescence resonance energy transfer) assay. […] After 60 minutes incubation with detection reagents, reaction plates were read on a PerkinElmer EnVision plate reader using standard TR-FRET protocol.

HeLa cells = test: [3H] Adenosine uptake assay; assay type: cell-based; conditions: accumulation of tritiated adenosine into HeLa cells, compound concentration range 10 μM to 0.032 nM, read-out: ADU inhibition IC50 (adenosine uptake inhibition potency)
How it was run: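 Accumulation of tritiated adenosine in adherent HeLa cells, detected by scintillant-plate coincidence counting, gives IC50 via 4-parameter robust fit. Compound (constant 0.25% DMSO) applied 30 min ahead, then 60 min radiolabel exposure (added from 500 nM solution), ambient conditions, HBSS with 5% FBS.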

SMILES	IC50 [1]	IC50 (HeLa cells; Homo sapiens, HeLa)	IC50 (HeLa cells)
CCOc1cc(C(=O)Nc2cc(C(F)(F)F)ccn2)ccc1-c1nc([C@@H]2CC[C@](C(=O)O)(C(C)C)C2)n2ccnc(N)c12 [Example 61, (1R,3R)-3-[8-amino-1-(2-ethoxy-4-{[4-(trifluoromethyl)pyridin-2-yl]carbamoyl}phenyl)imidazo[1,5-a]pyrazin-3-yl]-1-(1-methylethyl) cyclopentane-carboxylic acid]	2.4 nM	10000 nM	
Nc1nccn2c(-c3ccc(C(=O)O)o3)nc(-c3ccc(C(=O)Nc4cc(C(F)(F)F)ccn4)cc3)c12 [Example 28, 5-[8-amino-1-(4-{[4-(trifluoromethyl)pyridin-2-yl]carbamoyl}phenyl)imidazo[1,5-a]pyrazin-3-yl]furan-2-carboxylic acid]	2.4 nM	10000 nM	
C[C@@]1(C(=O)O)CC[C@@](C)(c2nc(-c3ccc(C(=O)Nc4cc(C(F)(F)F)ccn4)cc3)c3c(N)nccn23)C1 [Example 79, (1R,3R)-3-[8-amino-1-(4-{[4-(trifluoromethyl)pyridin-2-yl]carbamoyl}phenyl)imidazo[1,5-a]pyrazin-3-yl]-1,3-dimethylcyclopentane carboxylic acid]	0.73 nM	1590 nM	
CCOc1cc(C(=O)Nc2cc(C(F)(F)F)n(C)n2)ccc1-c1nc([C@@H]2CC[C@@](C(=O)O)(C(C)C)C2)n2ccnc(N)c12 [Example 52, (1S,3R)-3-[8-amino-1-(2-ethoxy-4-{[1-methyl-5-(trifluoromethyl)-1H-pyrazol-3-yl]carbamoyl}phenyl)imidazo[1,5-a]pyrazin-3-yl]-1-(1-methylethyl) cyclopentane-carboxylic acid]	9 nM	10000 nM	
CCOc1cc(C(=O)Nc2cc(C(F)(F)F)ccn2)ccc1-c1nc([C@]2(C)CC[C@](C)(C(=O)O)C2)n2ccnc(N)c12 [Example 87, (1S,3R)-3-[8-amino-1-(2-ethoxy-4-{[4-(trifluoromethyl)pyridin-2-yl]carbamoyl}phenyl)imidazo[1,5-a]pyrazin-3-yl]-1,3-dimethylcyclopentane carboxylic acid]	13.9 nM	9790 nM	
CCOc1cc(C(=O)Nc2cc(C3CC3)ccn2)cc(F)c1-c1nc(C2(C)CCC(C)(C(=O)O)CC2)n2ccnc(N)c12 (stereo not drawn) [Example 131, 4-(8-amino-1-{4-[(4-cyclopropylpyridin-2-yl)carbamoyl]-2-ethoxy-6-fluorophenyl}imidazo [1,5-a]pyrazin-3-yl)-1,4-dimethylcyclohexane-carboxylic acid]	0.75 nM	10000 nM	
CCOc1cc(C(=O)Nc2cc(C(F)(F)F)ccn2)ccc1-c1nc([C@@H]2CC[C@H](C(C)C)[C@H](C(=O)O)C2)n2ccnc(N)c12 [Example 98, (1R,2R,5R)-5-[8-amino-1-(2-ethoxy-4-{[4-(trifluoromethyl)pyridin-2-yl]carbamoyl}phenyl)imidazo[1,5-a]pyrazin-3-yl]-2-(1-methylethyl) cyclohexane-carboxylic acid]	4 nM	8770 nM	
CCOc1cc(C(=O)Nc2cc(C(F)(F)F)ccn2)ccc1-c1nc([C@@H]2CC[C@](C)(C(=O)O)C2(C)C)n2ccnc(N)c12 [Example 84, (1S,3R)-3-[8-amino-1-(2-ethoxy-4-{[4-(trifluoromethyl)pyridin-2-yl]carbamoyl}phenyl)imidazo[1,5-a]pyrazin-3-yl]-1,2,2-trimethylcyclopentane carboxylic acid]	0.45 nM	7350 nM	
Nc1nccn2c(C34CC(C(=O)O)(C3)C4)nc(-c3ccc(C(=O)Nc4cc(C(F)(F)F)ccn4)cc3)c12 [Example 34, 3-[8-amino-1-(4-{[4-(trifluoromethyl)pyridin-2-yl]carbamoyl}phenyl)imidazo[1,5-a]pyrazin-3-yl]bicyclo[1.1.1] pentane-1-carboxylic acid]	0.39 nM	6480 nM	
C[C@H]1CO[C@@H](c2nc(-c3ccc(C(=O)Nc4cc(C(F)F)ccn4)cc3F)c3c(N)ncc(Cl)n23)CN1[C@H]1CC[C@](C)(C(=O)O)CC1 [Example 207, trans-4-{(2R,5S)-2-[8-amino-5-chloro-1-(4-{[4-(difluoromethyl)pyridin-2-yl]carbamoyl}-2-fluorophenyl)imidazo[1,5-a]pyrazin-3-yl]-5-methylmorpholin-4-yl}-1-methylcyclohexanecarboxylic acid]	737 nM	10000 nM	
CCOc1cc(C(=O)Nc2cc(C(F)(F)F)ccn2)ccc1-c1nc([C@H]2CN(C3CCC(C)(C(=O)O)CC3)[C@@H](C)CO2)n2c(Cl)cnc(N)c12 (stereo partly drawn) [Example 189, 4-{(2R,5S)-2-[8-amino-5-chloro-1-(2-ethoxy-4-{[4-(trifluoromethyl)pyridin-2-yl]carbamoyl}phenyl)imidazo [1,5-a]pyrazin-3-yl]-5-methylmorpholin-4-yl}-1-methylcyclohexanecarboxylic acid]	1.9 nM	4840 nM	

Continued by falling IC50 [1], values first:

IC50 [1]	IC50 (HeLa cells; Homo sapiens, HeLa)	IC50 (HeLa cells)	SMILES
33 nM	6170 nM		CC1(C(=O)O)CCC(c2nc(-c3ccc(C(=O)Nc4cc(C5CC5)ccn4)cc3F)c3c(N)ncc(Cl)n23)CC1 (stereo not drawn) [Example 164, 4-(8-amino-5-chloro-1-{4-[(4-cyclopropylpyridin-2-yl)carbamoyl]-2-fluorophenyl}imidazo [1,5-a]pyrazin-3-yl)-1-methylcyclohexane-carboxylic acid]
12.2 nM	10000 nM		CCOc1cc(C(=O)Nc2cc(C(F)(F)F)ccn2)ccc1-c1nc([C@H]2CC[C@](C(=O)O)(C(C)C)C2)n2ccnc(N)c12 [Example 62, (1R,3S)-3-[8-amino-1-(2-ethoxy-4-{[4-(trifluoromethyl)pyridin-2-yl]carbamoyl}phenyl)imidazo[1,5-a]pyrazin-3-yl]-1-(1-methylethyl) cyclopentane-carboxylic acid]
7.6 nM	4290 nM		C[C@@]1(C(=O)O)CCCN(c2nc(-c3ccc(C(=O)Nc4cc(C(F)(F)F)ccn4)cc3)c3c(N)nccn23)C1 [Example 41, (3R)-1-[8-amino-1-(4-{[4-(trifluoromethyl)pyridin-2-yl]carbamoyl}phenyl)imidazo[1,5-a]pyrazin-3-yl]-3-methylpiperidine-3-carboxylic acid]
7.5 nM		4440 nM	C[C@]1(C(=O)O)CC[C@H](N2CCO[C@@H](c3nc(-c4ccc(C(=O)Nc5cc(C(F)F)ccn5)cc4)c4c(N)ncc(Cl)n34)C2)CC1 (stereo in doubt) [Example 196, trans-4-{(2R)-2-[8-amino-5-chloro-1-(4-{[4-(difluoromethyl)pyridin-2-yl]carbamoyl}phenyl)imidazo [1,5-a]pyrazin-3-yl]morpholin-4-yl}-1-methylcyclohexanecarboxylic acid]
2.6 nM	2480 nM		CC1(C(=O)O)CCCC(c2nc(-c3ccc(C(=O)Nc4cc(C5CC5)ccn4)cc3)c3c(N)nccn23)C1 (stereo not drawn) [Example 153, 3-(8-amino-1-{4-[(4-cyclopropylpyridin-2-yl)carbamoyl]phenyl}imidazo[1,5-a]pyrazin-3-yl)-1-methylcyclohexane-carboxylic acid]
1.9 nM	891 nM		CC(C)[C@@]1(C(=O)O)CC[C@H](N2C[C@H](c3nc(-c4ccc(C(=O)Nc5cc(C(F)(F)F)ccn5)cc4F)c4c(N)ncc(Cl)n34)OC[C@@H]2C)C1 [Example 203, (1R,3S)-3-{(2R,5S)-2-[8-amino-5-chloro-1-(2-fluoro-4-{[4-(trifluoromethyl)pyridin-2-yl]carbamoyl}phenyl)imidazo [1,5-a]pyrazin-3-yl]-5-methylmorpholin-4-yl}-1-(1-methylethyl) cyclopentanecarboxylic acid]
1.1 nM	3020 nM		C[C@@]1(C(=O)O)CCC[C@H](c2nc(-c3ccc(C(=O)Nc4cc(C5CC5)ccn4)cc3)c3c(N)nccn23)C1 [Example 159, (1R,3S)-3-(8-amino-1-{4-[(4-cyclopropylpyridin-2-yl)carbamoyl]phenyl}imidazo[1,5-a]pyrazin-3-yl)-1-methylcyclohexane-carboxylic acid]
0.91 nM	10000 nM		Nc1nccn2c(N3CC[C@H](C(=O)O)C3)nc(-c3ccc(C(=O)Nc4cc(C(F)(F)F)ccn4)cc3)c12 [Example 39, (3S)-1-[8-amino-1-(4-{[4-(trifluoromethyl)pyridin-2-yl]carbamoyl}phenyl)imidazo[1,5-a]pyrazin-3-yl]pyrrolidine-3-carboxylic acid]
0.76 nM	3160 nM		C[C@H]1CO[C@@H](c2nc(-c3ccc(C(=O)Nc4cc(C5CC5)ccn4)cc3F)c3c(N)ncc(Cl)n23)CN1[C@H]1CC[C@](C)(C(=O)O)CC1 [Example 209, trans-4-[(2R,5S)-2-(8-amino-5-chloro-1-{4-[(4-cyclopropylpyridin-2-yl)carbamoyl]-2-fluorophenyl}imidazo[1,5-a]pyrazin-3-yl)-5-methylmorpholin-4-yl]-1-methylcyclohexanecarboxylic acid]
0.56 nM	6870 nM		CCOc1cc(C(=O)Nc2cc(C(F)(F)F)ccn2)c(F)cc1-c1nc(C23CCC(C(=O)O)(CC2)CC3)n2ccnc(N)c12 [Example 149, 4-[8-amino-1-(2-ethoxy-5-fluoro-4-{[4-(trifluoromethyl)pyridin-2-yl]carbamoyl}phenyl)imidazo[1,5-a]pyrazin-3-yl]bicyclo[2.2.2] octane-1-carboxylic acid]
